Assay results reported in patent US8912121B2, “Herbicidal compositions comprising 4-amino-3-chloro-5-fluoro-6-(4-chloro-2-fluoro-3-methoxyphenyl)pyridine-2-carboxylic acid or a derivative thereof and certain PS II inhibitors” (Dow Agrosciences LLC, priority 2012, dated 2014).

Experiments:
[1] = system: ECHOR (Echinochloa oryzoides, early watergrass); experiment: In-water applied mixtures, transplanted paddy rice, greenhouse; type: in vivo, Echinochloa oryzoides (Ard.) Fritsch; settings: 19 DAA
Method: Weed seeds or nutlets of the desired test plant species were planted in puddled soil (mud) prepared by mixing a shredded, non-sterilized mineral soil (50.5 percent silt, 25.5 percent clay, and 24 percent sand, with a pH of about 7.6 and an organic matter content of about 2.9 percent) and water at a 1:1 volumetric ratio. The prepared mud was dispensed in 365 mL aliquots into 16-ounce (oz.) non-perforated plastic pots with a surface area of 86.59 square centimeters (cm^2) leaving a headspace of 3 centimeters (cm) in each pot Mud was allowed to dry overnight prior to planting or transplanting. Rice seeds were planted in Sun Gro MetroMix® 306 planting mixture, which typically has a pH of 6.0 to 6.8 and an organic matter content of about 30 percent, in plastic plug trays. Seedlings at the second or third leaf stage of growth were transplanted into 840 mL of mud contained in 32-oz. non-perforated plastic pots with a surface area of 86.59 cm^2 4 days prior to herbicide application. The paddy was created by filling the headspace of the pots with 2.5 to 3 cm of water. When required to ensure good germination and healthy plants, a fungicide treatment and/or other chemical or physical treatment was applied. The plants were grown for 4-22 days in a greenhouse with an approximate 14 h photoperiod which was maintained at about 29° C during the day and 26° C. during the night. Nutrients were added as Osmocote® (19:6:12, N:P:K+ minor nutrients) at 2 g per 16-oz. pot and 4 g per 32-oz. pot. Water was added on a regular basis to maintain the paddy flood, and supplemental lighting was provided with overhead metal halide 1000-Watt lamps as necessary. The plants were employed for testing when they reached the first through fourth true leaf stage.
Treatments consisted of the acid or esters of 4-amino-3-chloro-5-fluoro-6-(4-chloro-2-fluoro-3-methoxy-phenyl)pyridine-2-carboxylic acid (compound A) each formulated as an SC (suspension concentrate) and various herbicidal components alone and in combination. Forms of compound A were applied on an acid equivalent basis.
Other herbicidal components were applied on an active ingredient basis and included photosystem II (PSII)-inhibits propanil formulated as […] bentazon-sodium formulated as Basagran®, and simetryne (technical grade material).
Treatment requirements for each compound or herbicidal component were calculated based upon the rates being tested, the concentration of active ingredient or acid equivalent in the formulation, an application volume of 2 mL per component per pot, and an application area of 86.59 cm^2 per pot.
For formulated compounds, a measured amount was placed in an individual 100 or 200 mL glass vial and was dissolved in a volume of 1.25% (v/v) Agri-Dex® crop oil concentrate to obtain application solutions.
For technical grade compounds, a weighed amount was placed in an individual 100 to 200 mL glass vial and was dissolved in a volume of acetone to obtain concentrated stock solutions. […] The concentrated stock solutions obtained were diluted with an equivalent volume of an aqueous mixture containing 2.5% (v/v) crop oil concentrate so that the final application solutions contained 1.25% (v/v) crop oil concentrate.
Applications were made by injecting with a pipetter appropriate amounts of the application solutions, individually and sequentially, into the aqueous layer of the paddy. Control plants were treated in the same manner with the solvent blank. Applications were made so that all treated plant material received the same concentrations of acetone and crop oil concentrate.
The treated plants and control plants were placed in a greenhouse as described above and water was added as needed to maintain a paddy flood. After approximately 3 weeks the condition of the test plants as compared with that of the untreated plants was determined visually and scored on a scale of 0 to 100 percent where 0 corresponds to no injury or growth inhibition and 100 corresponds to complete kill. […]

[2] = system: SINAR (Sinapis arvensis, wild mustard); experiment: Postemergence herbicidal activity of mixtures in cereal crops, greenhouse; type: in vivo, Sinapis arvensis L.
Method: Seeds of the desired test plant species were planted in Sun Gro MetroMix® 306 planting mixture, which typically has a pH of 6.0 to 6.8 and an organic matter content of about 30 percent, in plastic pots with a surface area of 103.2 square centimeters (cm^2). When required to ensure good germination and healthy plants, a fungicide treatment and/or other chemical or physical treatment was applied. The plants were grown for 7-36 days in a greenhouse with an approximate 14 hour photoperiod which was maintained at about 18° C. during the day and about 17° C. during the night. Nutrients and water were added on a regular basis and supplemental lighting was provided with overhead metal halide 1000-Watt lamps as necessary. The plants were employed for testing when they reached the second or third true leaf stage.
Treatments consisted of the benzyl ester of 4-amino-3-chloro-5-fluoro-6-(4-chloro-2-fluoro-3-methoxy-phenyl)pyridine-2-carboxylic acid (Compound A), formulated as an SC, a second cereal herbicide alone and then both in combination.
Other herbicidal components were applied on an active ingredient basis and included PSII-inhibiting herbicides.
Measured aliquots of benzyl ester of 4-amino-3-chloro-5-fluoro-6-(4-chloro-2-fluoro-3-methoxy-phenyl)pyridine-2-carboxylic acid (Compound A) were placed in 25 milliliter (mL) glass vials and diluted in a volume of 1.25% (v/v) Agri-Dex® crop oil concentrate to obtain stock solutions. Compound requirements are based upon a 12 mL application volume at a rate of 187 liters per hectare (L/ha). Spray solutions of the second cereal herbicide and experimental compound mixtures were prepared by adding the stock solutions to the appropriate amount of dilution solution to form 12 mL spray solution with active ingredients in two- and three-way combinations. Formulated compounds were applied to the plant material with an overhead Mandel track sprayer equipped with an 8002E nozzle calibrated to deliver 187 L/ha over an application area of 0.503 square meters (m^2) at a spray height of 18 inches (46 cm) above average plant canopy. Control plants were sprayed in the same manner with the solvent blank.
The treated plants and control plants were placed in a greenhouse as described above and watered by sub-irrigation to prevent wash-off of the test compounds. After 20-22 days, the condition of the test plants as compared with that of the control plants was determined visually and scored on a scale of 0 to 100 percent where 0 corresponds to no injury and 100 corresponds to complete kill.
Colby's equation was used to determine the herbicidal effects expected from the mixtures (Colby, S. R. 1967. Calculation of the synergistic and antagonistic response of herbicide combinations. Weeds 15:20-22).
The following equation was used to calculate the expected activity of mixtures containing two active ingredients, A and B: Expected=A+B−(A×B/100)

## COc1c(Cl)ccc(-c2nc(C(=O)OCc3ccccc3)c(Cl)c(N)c2F)c1F [Compound A Benzyl Ester, benzyl ester of 4-amino-3-chloro-5-fluoro-6-(4-chloro-2-fluoro-3-methoxy-phenyl)pyridine-2-carboxylic acid]
[1]; 8 g ae/ha
  Visual Weed Control (%) Obs: 10%
[1]; 16 g ae/ha
  Visual Weed Control (%) Obs: 20%
[1]; 32 g ae/ha
  Visual Weed Control (%) Obs: 25%
[2]; Compound A Benzyl Ester 2.5 g ai/ha, Table 21
  Visual Weed Control (%)-21 DAA SINAR Obs: 70%
[2]; Compound A Benzyl Ester 2.5 g ai/ha, Table 22
  Visual Weed Control (%)-21 DAA SINAR Obs: 70%
[2]; Compound A Benzyl Ester 5 g ai/ha, Table 21
  Visual Weed Control (%)-21 DAA SINAR Obs: 73%
[2]; Compound A Benzyl Ester 5 g ai/ha, Table 22
  Visual Weed Control (%)-21 DAA SINAR Obs: 73%
